Measured values taken from patent US10307413B2, “Tetrahydro- and dihydro-isoquinoline PRMT5 inhibitors and uses thereof” (Epizyme, Inc., priority 2013, dated 2019).

Key:
PRMT5/MEP50 = PRMT5/MEP50 (Homo sapiens (Human), UniProt O14744); assay: PRMT5 Biochemical Assay (PRMT5/MEP50 enzyme assay on peptide substrate, 3H-SAM Flashplate)
From the text: S-adenosylmethionine (SAM), S-adenosylhomocysteine (SAH), bicine, KCl, Tween20, dimethylsulfoxide (DMSO), bovine skin gelatin (BSG), and Tris(2-carboxyethyl)phosphine hydrochloride solution (TCEP) were purchased from Sigma-Aldrich at the highest level of purity possible. ^3H-SAM was purchase from American Radiolabeled Chemicals with a specific activity of 80 Ci/mmol. 384-well streptavidin Flashplates were purchased from PerkinElmer.
Peptide representative of human histone H4 residues 1-15 was synthesized with a C-terminal linker-affinity tag motif and a C-terminal amide cap by 21st Century Biochemicals.
The amplified genes were sublconed into pENTR/D/TEV (Life Technologies) and subsequently transferred by Gateway™ attL×attR recombination to pDEST8 baculovirus expression vector (Life Technologies).
Protein over-expression was accomplished by infecting exponentially growing Spodoptera frugiperda (SF9) cell culture at 1.2×10^6 cell/ml with a 5000 fold dilution of BIIC stock. Infections were carried out at 27° C. for 72 hours, harvested by centrifugation, and stored at −80° C. for purification.
Flag-PRMT5/6His-MeP50 was eluted with 300 mM Imidazole in the same buffer.
General Procedure for PRMT5/MEP50 Enzyme Assays on Peptide Substrates.
The assays were all performed in a buffer consisting of 20 mM Bicine (pH=7.6), 1 mM TCEP, 0.005% BSG, and 0.002% Tween20, prepared on the day of use. […] DMSO (1 ul) was added to Columns 11, 12, 23, 24, rows A-H for the maximum signal control and 1 ul of SAH, a known product and inhibitor of PRMT5/MEP50, was added to columns 11, 12, 23, 24, rows I-P for the minimum signal control. A cocktail (40 ul) containing the PRMT5/MEP50 enzyme and the peptide was added by Multidrop Combi (Thermo-Fisher). The compounds were allowed to incubate with PRMT5/MEP50 for 30 min at 25 degrees Celsius, then a cocktail (10 ul) containing ^3H-SAM was added to initiate the reaction (final volume=51 ul). […] The assays were stopped by the addition of non-radioactive SAM (10 ul) to a final concentration of 600 uM, which dilutes the ^3H-SAM to a level where its incorporation into the peptide substrate is no longer detectable. 50 ul of the reaction in the 384-well polypropylene plate was then transferred to a 384-well Flashplate and the biotinylated peptides were allowed to bind to the streptavidin surface for at least 1 hour before being washed three times with 0.1% Tween20 in a Biotek ELx405 plate washer. The plates were then read in a PerkinElmer TopCount plate reader to measure the quantity of ^3H-labeled peptide bound to the Flashplate surface, measured as disintegrations per minute (dpm) or alternatively, referred to as counts per minute (cpm).
[formula] [formula] Where dpm=disintegrations per minute, cmpd=signal in assay well, and min and max are the respective minimum and maximum signal controls.
[formula] [formula] Where top and bottom are the normally allowed to float, but may be fixed at 100 or 0 respectively in a 3-parameter fit. The Hill Coefficient normally allowed to float but may also be fixed at 1 in a 3-parameter fit. Y is the % inhibition and X is the compound concentration.

[1] = system: symmetric di-methyl arginine in Z-138 cells; assay: Z-138 Methylation Assay (In Cell Western for symmetric di-methyl arginine and DNA content); format: cell-based; details: Homo sapiens, read-out: ICW EC50
Procedure, shortened: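 In-cell western: symmetric di-methyl arginine signal ratioed to DRAQ5 DNA content after 96 h compound exposure of Z-138 cells seeded at 50,000 cells/mL.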

Z-138 cell line = assay: Z-138 Proliferation Assay (Cell Titer Glo, 5 days); format: cell-based; details: Homo sapiens, 120 h; Z-138 cells, 5 days; read-out: Proliferation EC50
Procedure, shortened: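 Viability via CellTiter-Glo luminescence (ATP) after 5-day incubation at 37 °C, 5% CO2. Compounds tested in triplicate, nine 3-fold steps, highest final concentration 20 μM in 0.2% DMSO; 50% inhibitory concentration by 4-parameter fit of normalized curves.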

PRMT5/MEP50, sequence (O14744 other isoform, or with tags, fused parts or gaps): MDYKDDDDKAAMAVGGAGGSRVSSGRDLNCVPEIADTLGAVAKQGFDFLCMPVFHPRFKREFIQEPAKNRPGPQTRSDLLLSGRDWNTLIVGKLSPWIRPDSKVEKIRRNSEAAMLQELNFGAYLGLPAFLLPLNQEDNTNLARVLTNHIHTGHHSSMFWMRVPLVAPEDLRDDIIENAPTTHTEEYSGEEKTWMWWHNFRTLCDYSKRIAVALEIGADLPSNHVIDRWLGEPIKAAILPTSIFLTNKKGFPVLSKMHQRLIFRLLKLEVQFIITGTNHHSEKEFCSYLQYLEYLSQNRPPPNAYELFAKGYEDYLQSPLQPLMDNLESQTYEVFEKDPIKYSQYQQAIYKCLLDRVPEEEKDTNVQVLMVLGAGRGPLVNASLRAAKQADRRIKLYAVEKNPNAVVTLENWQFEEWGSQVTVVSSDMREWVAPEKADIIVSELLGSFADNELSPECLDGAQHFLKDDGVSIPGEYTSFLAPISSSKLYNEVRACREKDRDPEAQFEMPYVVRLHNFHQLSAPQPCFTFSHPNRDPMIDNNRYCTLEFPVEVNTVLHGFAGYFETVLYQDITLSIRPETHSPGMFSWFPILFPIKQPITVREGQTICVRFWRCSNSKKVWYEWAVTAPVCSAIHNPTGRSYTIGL
PRMT5/MEP50, sequence (Q9BQA1 other isoform, or with tags, fused parts or gaps partner): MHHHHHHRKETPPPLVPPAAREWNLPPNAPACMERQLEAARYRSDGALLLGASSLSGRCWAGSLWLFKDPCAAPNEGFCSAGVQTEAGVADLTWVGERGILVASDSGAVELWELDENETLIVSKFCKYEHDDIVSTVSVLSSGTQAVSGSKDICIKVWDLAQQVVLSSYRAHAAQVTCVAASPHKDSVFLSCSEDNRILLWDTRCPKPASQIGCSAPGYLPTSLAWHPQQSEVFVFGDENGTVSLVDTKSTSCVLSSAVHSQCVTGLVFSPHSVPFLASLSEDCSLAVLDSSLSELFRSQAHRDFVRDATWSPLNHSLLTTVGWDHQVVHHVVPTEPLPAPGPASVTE

O=C(NC[C@H](O)CN1CCc2ccccc2C1)c1cc(N[C@H]2CCOC2)ncn1 [Compound 351]
IC50 (PRMT5/MEP50): < 100 nM | EC50 [1]: < 100 nM | EC50 (Z-138 cell line): 101 to 1000 nM

COCCNc1cc(C(=O)NC[C@H](O)CN2CCc3ccccc3C2)ncn1 [Compound 352]
IC50 (PRMT5/MEP50): 101 to 1000 nM | EC50 [1]: < 100 nM | EC50 (Z-138 cell line): 1000 to 10000 nM

CN(C)CCNc1cc(C(=O)NC[C@H](O)CN2CCc3ccccc3C2)ncn1 [Compound 353]
IC50 (PRMT5/MEP50): < 100 nM | EC50 [1]: 101 to 1000 nM | EC50 (Z-138 cell line): 10000 to 50000 nM

CN(C)CCCNc1cc(C(=O)NC[C@H](O)CN2CCc3ccccc3C2)ncn1 [Compound 354]
IC50 (PRMT5/MEP50): < 100 nM | EC50 [1]: < 100 nM | EC50 (Z-138 cell line): 1000 to 10000 nM

O=C(NC[C@H](O)CN1CCc2ccccc2C1)c1cc(NC2CCC2)ncn1 [Compound 355]
IC50 (PRMT5/MEP50): < 100 nM | EC50 [1]: < 100 nM | EC50 (Z-138 cell line): < 100 nM

Cc1cnc(NC2CN(CC(F)(F)F)C2)cc1C(=O)NC[C@H](O)CN1CCc2ccccc2C1 [Compound 356]
IC50 (PRMT5/MEP50): 101 to 1000 nM | EC50 [1]: > 1000 nM | EC50 (Z-138 cell line): > 20000 nM

CN(C[C@H](O)CN1CCc2ccccc2C1)C(=O)c1ccnc(NC2CCOCC2)c1 [Compound 357]
IC50 (PRMT5/MEP50): 101 to 1000 nM | EC50 [1]: < 100 nM | EC50 (Z-138 cell line): 1000 to 10000 nM

CN(C[C@H](O)CN1CCc2ccccc2C1)C(=O)c1ccnc(N(C)C2CCOCC2)c1 [Compound 358]
IC50 (PRMT5/MEP50): 1000 to 10000 nM | EC50 [1]: 101 to 1000 nM | EC50 (Z-138 cell line): > 20000 nM

CN(CCNCC(F)(F)F)c1cc(C(=O)NC[C@H](O)CN2CCc3ccccc3C2)ccn1 [Compound 359]
IC50 (PRMT5/MEP50): < 100 nM | EC50 [1]: 101 to 1000 nM | EC50 (Z-138 cell line): 1000 to 10000 nM

NCCOc1ccc2cc(C(=O)NC[C@H](O)CN3CCc4ccccc4C3)ccc2c1 [Compound 360]
IC50 (PRMT5/MEP50): 101 to 1000 nM | EC50 [1]: < 100 nM | EC50 (Z-138 cell line): 1000 to 10000 nM

CNCCOc1ccc2cc(C(=O)NC[C@H](O)CN3CCc4ccccc4C3)ccc2c1 [Compound 361]
IC50 (PRMT5/MEP50): 101 to 1000 nM | EC50 [1]: < 100 nM | EC50 (Z-138 cell line): 1000 to 10000 nM

O=C(NC[C@H](O)CN1CCc2ccccc2C1)c1ccc(OCCCN2CCCCC2)cc1 [Compound 362]
IC50 (PRMT5/MEP50): 101 to 1000 nM | EC50 [1]: < 100 nM | EC50 (Z-138 cell line): 101 to 1000 nM

O=C(NC[C@H](O)CN1CCc2ccccc2C1)c1ccc(OCCCN2CCOCC2)cc1 [Compound 363]
IC50 (PRMT5/MEP50): < 100 nM | EC50 [1]: < 100 nM | EC50 (Z-138 cell line): 1000 to 10000 nM

CN(C[C@H](O)CN1CCc2ccccc2C1)C(=O)c1cc(NC2COC2)ncn1 [Compound 364]
IC50 (PRMT5/MEP50): 101 to 1000 nM | EC50 [1]: 101 to 1000 nM | EC50 (Z-138 cell line): 1000 to 10000 nM

O=C(NC[C@H](O)CN1CCc2ccccc2C1)c1cc(N[C@@H]2CCOC2)ncn1 [Compound 365]
IC50 (PRMT5/MEP50): < 100 nM | EC50 [1]: < 100 nM | EC50 (Z-138 cell line): 101 to 1000 nM

O=C(NC[C@H](O)CN1CCc2ccccc2C1)c1cncc(NC2COC2)n1 [Compound 366]
IC50 (PRMT5/MEP50): 101 to 1000 nM | EC50 [1]: 101 to 1000 nM | EC50 (Z-138 cell line): > 20000 nM

O=C(NC[C@H](O)CN1CCc2ccccc2C1)c1ccc2cc(OCCNCCO)ccc2c1 [Compound 368]
IC50 (PRMT5/MEP50): < 100 nM | EC50 [1]: < 100 nM | EC50 (Z-138 cell line): 1000 to 10000 nM

COCCNCCOc1ccc2cc(C(=O)NC[C@H](O)CN3CCc4ccccc4C3)ccc2c1 [Compound 369]
IC50 (PRMT5/MEP50): < 100 nM | EC50 [1]: < 100 nM | EC50 (Z-138 cell line): 1000 to 10000 nM

CN(C)CCOc1ccc2cc(C(=O)NC[C@H](O)CN3CCc4ccccc4C3)ccc2c1 [Compound 370]
IC50 (PRMT5/MEP50): < 100 nM | EC50 [1]: < 100 nM | EC50 (Z-138 cell line): 1000 to 10000 nM

O=C(NC[C@H](O)CN1CCc2ccccc2C1)c1ccc(OCCN2CCCCC2)cc1 [Compound 371]
IC50 (PRMT5/MEP50): < 100 nM | EC50 [1]: < 100 nM | EC50 (Z-138 cell line): 1000 to 10000 nM

O=C(NC[C@H](O)CN1CCc2ccccc2C1)c1ccc(OCCCN2CCCC2)cc1 [Compound 372]
IC50 (PRMT5/MEP50): < 100 nM | EC50 [1]: < 100 nM | EC50 (Z-138 cell line): 101 to 1000 nM
